Measurements reported in article PMC5469451, “Identification of compounds that suppress Toxoplasma gondii tachyzoites and bradyzoites” (PLoS ONE, 2017).

Key:
[1] = test system: PLK/DLUC_1C9 tachyzoites in Vero cells; assay: Primary screening: T. gondii growth assay, Renilla luciferase; type: cell-based, Toxoplasma gondii; conditions: Toxoplasma gondii; 10 μM, 48 h, PLK/DLUC_1C9 in Vero cells; DMSO = 0%, 10 μM pyrimethamine = 100%; read-out: Parasite Inhibition (%)
Procedure: In the primary screening, purified PLK/DLULC_1C9 tachyzoites were incubated with Vero cells at a multiplicity of infection (MOI) of 0.5. After a 2-h incubation, the infected host cells were trypsinized to obtain a cell suspension and then these suspended infected cells were inoculated into 96-well optical bottom plates containing the compound library. Each well was inoculated with 2500 cells in 25 μL of culture medium. […] Following cell inoculation, each well therefore contained 0.5% DMSO and 10 μM compound. After 48 h of culture, Renilla luciferase activity was measured by using Renilla-Glo (Promega, WI, USA) following the manufacturer’s instructions. […] The Z’-value for each plate was calculated from the Renilla luciferase activity in the negative and positive control wells.

[2] = test system: PruΔku80Δhxgprt in HFF cells; assay: Immunofluorescence-based assay on spontaneously induced bradyzoites; type: cell-based, Toxoplasma gondii; conditions: 10, 2, 0.4, 0.08 μM, 48 h
Procedure: PruΔku80Δhxgprt, which expresses GFP under the control of a bradyzoite-specific gene LDH2 promoter, [13] was used. HFF host cells were seeded to a 96-well glass bottom plate (MGB096-1-2-LG-L, Brooks Automation, MA, USA) and cultured until confluent. Parasites were freshly lysed by passing them through 27 G needles and were purified by passing them through a 5-μm-pore filter. Five thousand parasites in 100 μL of culture medium were added and mixed with an equal volume of compound-containing medium to give final drug concentrations of 10, 2, 0.4, and 0.08 μM in 0.2% DMSO. After incubation at room temperature for 10 min, the infected host cells were incubated for 48 h at 37°C in a 5% CO2 incubator. After incubation, the cells were fixed with 4% paraformaldehyde in PBS for 20 min, quenched, and permeabilized with 0.2 M glycine and 0.2% TritonX-100 in PBS for 20 min, and then blocked with 3% BSA and 0.1% Tween 20 in PBS (blocking buffer); each procedure was performed at room temperature and was followed by washes with PBS three times. All parasites were stained with an anti-Toxoplasma mouse antibody (antisera produced in ME49-infected mice), and bradyzoites were detected with an anti-GFP rabbit monoclonal antibody (Life Technologies). Secondary antibodies for mouse (Alexa633 conjugated) and rabbit (Alexa488 conjugated) and DAPI were used to develop the fluorescent signal. Stained cells on 96-well plates were analyzed with a CompuCyte iCys Research Imaging Cytometer (Beckman Coulter, IN, USA).

[3] = test system: HFF cells; assay: Host cell viability in bradyzoite differentiation condition; type: cell-based, human; conditions: pH 8.1
Procedure: To evaluate the host cell viability in bradyzoite differentiation condition, HFF cells were incubated for 48 h in DMEM containing 25 mM HEPES pH 8.1 and 1% FBS and measured the viability as described above.

[4] = test system: PLK/DLUC_1C9 parasites in HFF cells; assay: Bradyzoite differentiation assay, relative BAG1 promoter activity (Dual-Glo); type: cell-based, Toxoplasma gondii; conditions: 1 μM hydroxyzine, 2.5 μM tanshinone IIA; added 24 h after infection, 48 h treatment
Procedure: To measure bradyzoite induction activities of tanshinone IIA and hydroxyzine, PLK/DLUC_1C9 parasites were purified and then inoculated at a concentration of 2.0 x 10^4 parasites/well into 12-well plates containing confluent monolayers of HFF cells. Cells were incubated for 24 h after infection, then compounds were added, and the cells were incubated for 48 h. After incubation, the cells in each well were lysed using 200 μL of Passive Lysis Buffer (Promega) and the lysates were stored at -80°C. For the luciferase assay, 25 μL of lysate was used and the Renilla and firefly luciferase activities were measured by using Dual-Glo (Promega) according to the manufacturer’s instruction.

[5] = test system: PLK/DLUC_1C9 in vitro-induced bradyzoites in HFF cells; assay: Effect on in vitro-induced bradyzoites (Dual-Glo firefly luciferase, BAG1 promoter); type: cell-based, Toxoplasma gondii; conditions: 3 days bradyzoite induction, then 10, 5, 2.5, 1 μM for 48 h; relative to DMSO
Procedure: To measure the effect of tanshinone IIA and hydroxyzine on in vitro-induced bradyzoites, we used PLK/DLUC_ 1C9 parasites and the Dual-Glo luciferase assay. Briefly, HFF cells in 96-well plates were infected with 1 x 10^4 parasites/well and incubated for 3 days with ambient CO2 condition in DMEM containing 25 mM HEPES pH 8.1 and 1% FBS to induce bradyzoites. Induced bradyzoites were treated with 10, 5, 2.5, and 1 μM compounds under bradyzoite-inducing conditions. After 48 h, luciferase activities were measured by using the Dual-Glo assay system (Promega) and normalized by host cell number.

[6] = test system: RH-2F intracellular parasites in HFF cells; assay: Intracellular parasite growth after invasion (β-galactosidase); type: cell-based, Toxoplasma gondii; conditions: uninvaded parasites washed away, 48 h; 1.0 μM hydroxyzine, 2.5 μM tanshinone IIA, 25 mg/ml DS10
Procedure: (§1) To measure the effects of tanshinone IIA and hydroxyzine on intracellular parasite growth, parasites were allowed to invade for 2 h, uninvaded parasites were washed away, and medium with compounds was added. After 48 h, the plates were frozen at -80°C. Plates were then thawed just prior to the measurement of beta-galactosidase activity. Beta-Glo (Promega) was used to measure β-galactosidase activity following the manufacturer’s instructions.

[7] = test system: RH-2F tachyzoites (type I strain) in HFF cells; assay: Confirmatory screening: RH-2F β-galactosidase growth assay in HFF cells; type: cell-based, Toxoplasma gondii
Procedure: In the confirmatory screening, we utilize an RH strain β-galactosidase reporter parasite termed RH-2F (a type I strain). Briefly, RH-2F parasites were purified from freshly lysed infected host cells and used to infect confluent HFF cells cultured in 96-well plates. Five hundred parasites were added to each well, along with each test compound and 50 μL of culture medium. Plates were then incubated for 10 min at room temperature followed by an incubation at 37°C for 48 h in a CO2 incubator.
as §1

[8] = Host cell cytotoxicity assay (Cell-Titer Glo), HFF cells; type: cell-based, human; conditions: human, HFF cells, 2.5 μM, 48 h, HFF cells; read-out: Host cell viability (%)
Procedure: (§2) Vero cells and HFF cells were both used as host cells because both cell types were used for the parasite screening. After incubation for 48 h in DMEM supplemented with 5% FBS, L-glutamine, penicillin, and streptomycin, cell viabilities were measured by using a Cell-Titer Glo kit (Promega) following the manufacturer’s instructions. Control wells were treated with DMSO alone in culture medium to calculate the 100% viability for each cell type.

[9] = test system: HFF cells; assay: as above; type: cell-based, human; conditions: 25 μM, 48 h, HFF cells, compared with DMSO
Procedure: as §2

[10] = Host cell cytotoxicity assay (Cell-Titer Glo), Vero cells; type: cell-based; conditions: African green monkey; 10 μM, 48 h, Vero cells; DMSO = 100%; read-out: Host Viability (%)
Procedure: Host cells were treated with compounds at the same concentration used for screening (i.e., 0.5% DMSO and 10 μM compound). Vero cells and HFF cells were both used as host cells because both cell types were used for the parasite screening. After incubation for 48 h in DMEM supplemented with 5% FBS, L-glutamine, penicillin, and streptomycin, cell viabilities were measured by using a Cell-Titer Glo kit (Promega) following the manufacturer’s instructions. Control wells were treated with DMSO alone in culture medium to calculate the 100% viability for each cell type.

## OCCOCCN1CCN(C(c2ccccc2)c2ccc(Cl)cc2)CC1 (centres unmarked) [Hydroxyzine]
[1]
  inhibition at 10 µM: 97%
[2]
  Parasite growth (total parasite vacuole size): reduced parasite growth in a concentration-dependent manner
[2]; compared with DMSO
  Bradyzoite differentiation (GFP-positive PV rate): did not induce bradyzoite differentiation even at high concentrations
[3]
  Host cell viability under the bradyzoite-inducing condition: did not affect the host cell viability
[4]
  Relative BAG1 promoter activity (bradyzoite ratio) compared with 5 μM pyrimethamine treatment: 0.4%
[5]
  Bradyzoite number (firefly luciferase under BAG1 promoter, normalized by host cell number): reduced the bradyzoite number
[6]
  Parasite growth when compound added after 2 h invasion window: reduced parasite growth in a dose dependent manner
[7]; 2.5 μM, 48 h, RH-2F in HFF, compared with 10 μM pyrimethamine
  Parasite inhibition (%): 100%
[7]; Toxoplasma gondii, 25 μM, 48 h, RH-2F in HFF, compared with 10 μM pyrimethamine, read-out: Parasite inhibition (%)
  inhibition at 25 µM: 107%
[7]; Toxoplasma gondii, RH-2F in HFF cells, β-galactosidase assay, read-out: IC50 for parasite growth (95% CI)
  IC50: 1000 nM
[8]
  viability at 48 h, 2.5 µM: 102%
[9]
  Host cell viability (%): 100%
[9]; listed as hydroxyzine
  Host cell viability (%): no effect on host cell viability
[10]
  viability at 48 h, 10 µM: 101%
